The IC50 is the concentration that inhibits the measured activity by half. The MIC is the least concentration at which growth counts as inhibited. As a reminder, the inhibition is the percentage by which the read-out fell short of the control.

≈ marks a conversion by molar mass, not a printed value.

This is an account of results in ChEMBL document CHEMBL5126542, “Toll-like receptor 4 (TLR4) inhibitors: Current research and prospective” (Eur J Med Chem, 2022).

The nature of series [1]: Inhibition of TLR4 expression in human monocytes. The following applies: Monocyte. The class given is functional, cell-based.
Series [2] deals with T1, Toll-like receptor 4 (Homo sapiens, UniProt O00206). Description: Inhibition of LPS-stimulated TLR4 activation in HEK-Blue-hTLR4 cells assessed as reduction in SEAP release preincubated for 15 mins followed by LPS stimulation and measured after 16 hrs by microplate reader assay. It is filed as cell-based.
T1 sequence (O00206 whole entry): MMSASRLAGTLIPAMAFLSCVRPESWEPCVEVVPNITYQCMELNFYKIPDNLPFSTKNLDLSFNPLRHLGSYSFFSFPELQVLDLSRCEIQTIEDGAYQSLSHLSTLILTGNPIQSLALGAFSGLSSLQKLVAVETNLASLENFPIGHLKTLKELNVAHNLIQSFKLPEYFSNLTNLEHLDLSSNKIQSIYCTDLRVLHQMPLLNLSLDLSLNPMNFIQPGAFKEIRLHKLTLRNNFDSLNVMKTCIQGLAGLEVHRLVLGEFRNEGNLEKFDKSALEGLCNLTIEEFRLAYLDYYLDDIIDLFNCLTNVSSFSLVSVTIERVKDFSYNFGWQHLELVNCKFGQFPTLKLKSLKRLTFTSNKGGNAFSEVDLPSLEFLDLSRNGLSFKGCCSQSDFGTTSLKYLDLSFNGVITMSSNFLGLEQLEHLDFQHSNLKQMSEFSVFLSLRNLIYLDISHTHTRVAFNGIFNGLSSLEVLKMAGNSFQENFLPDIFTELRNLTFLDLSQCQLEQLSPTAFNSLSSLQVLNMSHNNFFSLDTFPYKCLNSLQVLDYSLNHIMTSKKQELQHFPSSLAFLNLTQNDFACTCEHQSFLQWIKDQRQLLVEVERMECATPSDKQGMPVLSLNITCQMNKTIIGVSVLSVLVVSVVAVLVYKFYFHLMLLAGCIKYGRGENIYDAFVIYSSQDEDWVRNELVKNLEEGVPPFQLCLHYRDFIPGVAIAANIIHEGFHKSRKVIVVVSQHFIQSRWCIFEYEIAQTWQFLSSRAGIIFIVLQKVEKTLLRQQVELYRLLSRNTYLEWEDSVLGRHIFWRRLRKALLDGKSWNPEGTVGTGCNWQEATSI
For a further series, the system named is HEK293T. Description: Inhibition of LPS-stimulated human TLR4/MD2 expressed in HEK293T cells assessed as reduction in NF-kappaB activation preincubated for 1 hr followed by LPS stimulation for 8 hrs by luciferase reporter gene assay. It is filed as cell-based. The following applies: time 9.0 hrs.
Series [3] has as its target T1, Toll-like receptor 4. Description: Inhibition of TLR4 in HEK293 cells assessed as reduction in LPS-stimulated NF-kappaB activation at 20 uM incubated for 16 to 24 hrs by SEAP reporter gene assay relative to control. The class given is cell-based. The note with it: time 16-24 hrs.
The next series deals with HEK293. Description: Cytotoxicity against HEK293 cells assessed as cell survival at 20 uM incubated for 16 to 24 hrs by MTT method. It is filed as functional. The note with it: Homo sapiens, time 16-24 hrs, read-out: Activity. In general terms: Tetrazolium assays rely on reduction of a dye to a coloured formazan, in cell work by metabolically active cells.
Series [4] has as its system RAW264.7. Description: Antiinflammatory activity in mouse RAW264.7 cells assessed as decrease in LPS-induced NO secretion preincubated for 1 hr followed by LPS stimulation and measured after 24 hrs by Griess reagent based assay. It is filed as functional, cell-based.
The subject of series [5] is RAW264.7. Description: Antiinflammatory activity in mouse RAW264.7 cells assessed as decrease in LPS-induced IL-1beta secretion preincubated for 1 hr followed by LPS stimulation and measured after 24 hrs by ELISA. The class given is functional, cell-based.
Series [6] concerns RAW264.7. The series can be described thus: Antiinflammatory activity in mouse RAW264.7 cells assessed as decrease in LPS-induced TNF-alpha secretion preincubated for 1 hr followed by LPS stimulation and measured after 24 hrs by ELISA. It is filed as functional, cell-based.
Series [7] has as its system Liver. Description: Inhibition of CIS-induced NF-kappaBp53 mRNA expression in rat hepatic tissue by SYBR-green dye based RT-PCR analysis. The class given is functional.
Series [8] relates to Liver. Description: Inhibition of CIS-induced MyD88 mRNA expression in rat hepatic tissue by SYBR-green dye based RT-PCR analysis. It is filed as functional.
The subject of series [9] is Liver. Description: Inhibition of CIS-induced TLR4 mRNA expression in rat hepatic tissue by SYBR-green dye based RT-PCR analysis. The class given is functional.
For series [10], the system named is Liver. Description: Inhibition of CIS-induced TLR4 protein expression in rat hepatic tissue by Western blot analysis. The class given is functional. A general note: A western blot detects proteins with antibodies after separation by electrophoresis.
The target of series [11] is T1, Toll-like receptor 4. The series can be described thus: Inhibition of human TLR4 expressed in HEK293-Blue hTLR4 cells assessed as SEAP expression. It is filed as cell-based, HEK-Blue hTLR4.
Series [12] in a line: Inhibition of HMGB1-induced TLR4 protein expression in mouse primary microglia preincubated for 12 hrs followed by HMGB1 stimulation for 30 mins by Western blot analysis. The following applies: time 12.5 hrs. It is filed as functional.
A short description of series [13]: Inhibition of LPS-induced NO production in mouse BV-2 microglia cells incubated for 24 hrs by 2,3-diaminonaphthalene assay. It is filed as functional, cell-based. The note with it: BV-2, 24 h.
In series [14] the target is T1, Toll-like receptor 4. Description: Inhibition of TLR4 in HEK293 cells assessed as reduction in LPS-stimulated NF-kappaB activation at 10 uM incubated for 16 to 24 hrs by SEAP reporter gene assay relative to control. It is filed as cell-based. The following applies: time 16-24 hrs.
Series [15] can be described thus: Cytotoxicity against HEK293 cells assessed as cell survival at 10 uM incubated for 16 to 24 hrs by MTT method. The class given is toxicity, cell-based. The note with it: human, time 16-24 hrs, read-out: Activity.
The nature of series [16]: Inhibition of LPS-stimulated NO production in mouse RAW264.7 cells at 10 nM incubated for overnight by 2,3-diaminonaphthalene assay relative to control. The class given is functional.
The target in series [17] is T1, Toll-like receptor 4. The series can be described thus: Binding affinity to TLR4 in human THP-1 monocytes after 48 hrs by ELISA. It is filed as cell-based. (ELISA stands for enzyme-linked immunosorbent assay.)

In series [1], `CC(=O)N[C@H]1[C@H](Oc2ccc([N+](=O)[O-])cc2)O[C@H](CO)[C@@H](O)[C@@H]1O` showed an IC50 of 0.042 µM. With `CCCCC/C=C\C/C=C\CCCCCCC(=O)N[C@H]1[C@H](OC(=O)CCC(=O)O)O[C@H](CO)[C@@H](OC(=O)CCC(=O)O)[C@@H]1OC(=O)CCCCCCCCCCCCC`, the IC50 on Toll-like receptor 4 [2] turned out to be 6.61 µM. Turning to `O=C(/C=C/c1ccc(O)c(O)c1)OCCc1ccccc1`, in the series on HEK293T, the minimum inhibitory concentration (MIC) amounted to 1 µM (≈ 0.284 µg/mL).

On to `CC(C)Nc1ccc(N2CC[C@]34CCCC[C@H]3[C@H]2Cc2ccc(O)cc24)cc1`, for which the inhibition at Toll-like receptor 4 [3] was found to be 99.8%. Moreover, the viability at 20 µM in the series with HEK293 stood at 89.9%. Consider `O=S(=O)(Nc1ccc(C(F)(F)F)cc1)c1cccc2cccnc12`, for which the 50% inhibitory concentration (IC50) with RAW264.7 [4] worked out at 2.61 µM; in the series with RAW264.7 [5], 12.7 µM; with RAW264.7 [6] it was 9.74 µM. In the case of `CC(/C=C/C=C(\C)C(=O)O[C@@H]1O[C@H](CO[C@@H]2O[C@H](CO)[C@@H](O)[C@H](O)[C@H]2O)[C@@H](O)[C@H](O)[C@H]1O)=C\C=C\C=C(C)\C=C\C=C(/C)C(=O)O[C@@H]1O[C@H](CO[C@@H]2O[C@H](CO)[C@@H](O)[C@H](O)[C@H]2O)[C@@H](O)[C@H](O)[C@H]1O` [CROCIN], the “inhibition (INH)” value in the series with Liver [7] worked out at 66.2%; with Liver [8] it was 53.2%; in the series with Liver [9], 57.7%; with Liver [10] it was 53.1%. Consider `COc1ccc(N/C(N)=N/c2ncc(C(=O)c3ccccc3O)cn2)cc1`, for which the IC50 on Toll-like receptor 4 [11] amounted to 27 µM. Turning to `CCCCCCCCC/C=C\CCCCCCC(=O)N[C@H]1[C@H](OC(=O)CCC(=O)O)O[C@H](CO)[C@@H](OC(=O)CCC(=O)O)[C@@H]1OC(=O)CCCCCCCCCCCCC`, the IC50 on Toll-like receptor 4 [2] stood at 2.7 µM. As to `N/C(=N\c1ncc(C(=O)c2cc(Cl)ccc2O)cn1)Nc1ccc(F)cc1`, the IC50 on Toll-like receptor 4 [11] is 40 µM. In turn, `COc1ccc(C[C@H]2COC(=O)[C@@H]2Cc2ccc(O[C@@H]3O[C@H](CO)[C@@H](O)[C@H](O)[C@H]3O)c(OC)c2)cc1OC` [ARCTIIN] registered a minimum inhibitory concentration (MIC) in series [12] of no more than 50 µM. Turning to `COc1ccc(C(=O)c2cnc(/N=C(\N)Nc3ccc(F)cc3)nc2)c(O)c1`, the concentration for half-maximal inhibition (IC50) at Toll-like receptor 4 [11] is 18 µM.

As for `O=C1CC[C@@]2(O)[C@H]3Cc4ccc(O)c5c4[C@@]2(CCN3CC2CC2)[C@H]1O5` [NALTREXONE], the IC50 in series [13] was found to be 106 µM. With `C=CC(=O)N(c1ccc(F)cc1Cl)S(=O)(=O)c1ccccc1C(=O)OC`, the inhibition on Toll-like receptor 4 [14] worked out at 100%. Also, the viability at 10 µM in series [15] is 88.5%.

Regarding `CCCCCCCC/C=C\CCCCCCC(=O)N[C@H]1[C@H](OC(=O)CCC(=O)O)O[C@H](CO)[C@@H](OC(=O)CCC(=O)O)[C@@H]1OC(=O)CCCCCC/C=C\CCCCCCCC`, the IC50 at Toll-like receptor 4 [2] was 3.5 µM. On to `COc1ccc(C(C)=O)c(Oc2ccc(NC(=O)/C=C/c3cc(OC)c(OC)c(OC)c3)cc2)c1`, for which the half-inhibitory concentration (IC50) in the series on RAW264.7 [4] came out at 6.96 µM.

For `CCCCC/C=C\C/C=C\CCCCCCC(=O)N[C@H]1[C@H](OC(=O)CCC(=O)O)O[C@H](CO)[C@@H](OC(=O)CCC(=O)O)[C@@H]1OC(=O)CCCCCC/C=C\C/C=C\CCCCC`, the half-inhibitory concentration (IC50) on Toll-like receptor 4 [2] is 4.35 µM. `CCOC(=O)C1=C[C@@H](O)CC[C@H]1S(=O)(=O)Cc1ccc(F)cc1Cl` displayed an inhibition at 0.01 µM in series [16] of 98%.

`C=CC(=O)N(c1ccc(F)cc1Cl)S(=O)(=O)N1CCCCC1C(=O)OC` (stereo not drawn): the inhibition at Toll-like receptor 4 [14] is 100%. Further, the viability at 10 µM in series [15] amounted to 92.2%. On to `CCCCCCCCCCCCCC(=O)N[C@H]1[C@H](OC(=O)CCC(=O)O)O[C@H](CO)[C@@H](OC(=O)CCC(=O)O)[C@@H]1OC(=O)CCCCCCCCCCCCC`, for which the IC50 on Toll-like receptor 4 [2] was 5.91 µM.

As to `CC(=O)N[C@H]1[C@H](OC2CCCCC2)O[C@H](CO)[C@@H](O[C@@H]2O[C@H](CO)[C@@H](O[C@@H]3O[C@H](CO)[C@@H](O[C@@H]4O[C@H](CO)[C@@H](O[C@@H]5O[C@H](CO)[C@@H](O[C@@H]6O[C@H](CO)[C@@H](O)[C@H](O)[C@H]6NC(C)=O)[C@H](O)[C@H]5NC(C)=O)[C@H](O)[C@H]4NC(C)=O)[C@H](O)[C@H]3NC(C)=O)[C@H](O)[C@H]2NC(C)=O)[C@@H]1O`, the IC50 on Toll-like receptor 4 [17] came to 0.15 µM.
